Where “and” joins values, the source holds several entries; their conditions need not be identical. Equal entries are not always repeated. Inconclusive results and toxic doses are left out. Rule for the calls: active = survival T/C of 150% or more; inactive = T/C below 125% in these data. Peptide text beside a SMILES is read from it. * marks the point of attachment. Butyryl = CCCC(=O)*; Bn = c1ccc(C*)cc1
Test system: P388 leukemia ip, CD2F1 mice, survival T/C
Assay: NCI In Vivo Anticancer Drug Screen. Data for tumor model P388 Leukemia (intraperitoneal) in CD2F1 (CDF1) mice
Conditions: endpoint: median survival time, higher = longer survival
Procedure, shortened: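 Mice carrying the transplanted tumor received test compound or vehicle. Survival was recorded in each group, and the value is the treated-group measurement divided by that of the vehicle-treated control group.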

[1] = dose: 12.5 mg/kg/injection, schedule: Q01DX009 (ip), vehicle: saline with Tween-80
[2] = dose: 25.0 mg/kg/injection, schedule: Q01DX009 (ip), vehicle: saline with Tween-80
[3] = dose: 50.0 mg/kg/injection, schedule: Q01DX009 (ip), vehicle: saline with Tween-80
[4] = dose: 100.0 mg/kg/injection, schedule: Q01DX009 (ip), vehicle: saline with Tween-80
[5] = dose: 200.0 mg/kg/injection, schedule: Q01DX009 (ip), vehicle: saline with Tween-80
[6] = dose: 50.0 mg/kg/injection, schedule: Q01DX005 (ip), vehicle: saline with Tween-80
[7] = dose: 100.0 mg/kg/injection, schedule: Q01DX005 (ip), vehicle: saline with Tween-80
[8] = dose: 200.0 mg/kg/injection, schedule: Q01DX005 (ip), vehicle: saline with Tween-80
[9] = dose: 50.0 mg/kg/injection, schedule: Q01DX005 (ip), vehicle: Klucel (hydroxypropylcellulose) (HPC)
[10] = dose: 100.0 mg/kg/injection, schedule: Q01DX005 (ip), vehicle: Klucel (hydroxypropylcellulose) (HPC)

Measured: T/C

c1ccc(-c2ccc(-c3csnn3)cc2)cc1
inactive: [1] 100 % of control | [2] 95 % of control | [3] 91 % of control and 94 % of control | [4] 91 % of control | [5] 88 % of control

C=C1C(=O)O[C@@H]2C(=O)[C@@H](C)[C@@H]3C=CC(=O)[C@@]3(C)[C@@H](OC(=O)/C(C)=C\C)[C@H]12
inactive: dose: 2.0 mg/kg/injection, schedule: Q01DX009 (ip), vehicle: saline + alcohol 107 % of control | dose: 4.0 mg/kg/injection, schedule: Q01DX009 (ip), vehicle: saline + alcohol 99 % of control | dose: 8.0 mg/kg/injection, schedule: Q01DX009 (ip), vehicle: saline + alcohol 109 % of control and 123 % of control | dose: 16.0 mg/kg/injection, schedule: Q01DX009 (ip), vehicle: saline + alcohol 116 % of control

Cc1ccc(SSCCN)cc1
inactive: dose: 12.5 mg/kg/injection, schedule: Q01DX005 (ip), vehicle: saline 104 % of control | dose: 25.0 mg/kg/injection, schedule: Q01DX005 (ip), vehicle: saline 104 % of control | dose: 50.0 mg/kg/injection, schedule: Q01DX005 (ip), vehicle: saline 108 % of control and 110 % of control

O=C(CCN1CCOCC1)Nc1ccc(F)cc1F
inactive: [6] 99 % of control | [7] 94 % of control | [8] 94 % of control

CC(OC(=O)C1C2C=CC(C2)C1C(=O)O)c1cccnc1 (centres undefined)
inactive: [9] 97 % of control | [10] 100 % of control | dose: 200.0 mg/kg/injection, schedule: Q01DX005 (ip), vehicle: Klucel (hydroxypropylcellulose) (HPC) 98 % of control

CCCC(=O)NC(CSCc1ccccc1)C(=O)NC(CCC(=O)OC)C(=O)OC (centres undefined) (Butyryl-Cys(Bn)-Glu(OMe)-OMe; configuration not given here)
inactive: [3] 104 % of control | [4] 104 % of control | [5] 96 % of control

[Cl][Sn]([CH2]C[CH2][Sn]([Cl])([c]1ccccc1)[c]1ccccc1)([c]1ccccc1)[c]1ccccc1
inactive: dose: 3.12 mg/kg/injection, schedule: Q01DX005 (ip), vehicle: Klucel (hydroxypropylcellulose) (HPC) 99 % of control | dose: 6.25 mg/kg/injection, schedule: Q01DX005 (ip), vehicle: Klucel (hydroxypropylcellulose) (HPC) 99 % of control | dose: 12.5 mg/kg/injection, schedule: Q01DX005 (ip), vehicle: Klucel (hydroxypropylcellulose) (HPC) 98 % of control

Cn1cnc2cc(Cl)c([N+](=O)[O-])cc2c1=O
inactive: dose: 100.0 mg/kg/injection, schedule: Q04DX002 (ip), vehicle: Klucel (hydroxypropylcellulose) (HPC) 102 % of control | dose: 200.0 mg/kg/injection, schedule: Q04DX002 (ip), vehicle: Klucel (hydroxypropylcellulose) (HPC) 110 % of control | dose: 400.0 mg/kg/injection, schedule: Q04DX002 (ip), vehicle: Klucel (hydroxypropylcellulose) (HPC) 102 % of control

Cc1c2ccncc2c(C)c2c1[nH]c1ccc(-c3ccccc3)cc12
inactive: dose: 20.0 mg/kg/injection, schedule: Q01DX001 (ip), vehicle: saline with Tween-80 102 % of control | dose: 40.0 mg/kg/injection, schedule: Q01DX001 (ip), vehicle: saline with Tween-80 100 % of control | dose: 80.0 mg/kg/injection, schedule: Q01DX001 (ip), vehicle: saline with Tween-80 99 % of control

CCCCCC(CN(C)C)C(=O)CC(SCC)c1ccccc1 (centres undefined)
inactive: dose: 12.5 mg/kg/injection, schedule: Q01DX009 (ip), vehicle: water 111 % of control | dose: 25.0 mg/kg/injection, schedule: Q01DX009 (ip), vehicle: water 100 % of control

COc1ccc(-c2ccc(OC)c(=O)cc2)c(OC)c1OC
inactive: [9] 93 % of control | [10] 105 % of control

C/C(=C\c1ccc(OCC(=O)O)c(Cl)c1Cl)[N+](=O)[O-]
inactive: dose: 12.5 mg/kg/injection, schedule: Q01DX001 (ip), vehicle: saline with Tween-80 100 % of control and 102 % of control | dose: 25.0 mg/kg/injection, schedule: Q01DX001 (ip), vehicle: saline with Tween-80 98 % of control and 100 % of control

O=C1c2cccc3cccc(c23)C(=O)N1CCNCCN1C(=O)c2cccc3cccc(c23)C1=O
inactive: dose: 60.0 mg/kg/injection, schedule: Q01DX005 (ip), vehicle: saline with Tween-80 91 % of control | dose: 240.0 mg/kg/injection, schedule: Q01DX005 (ip), vehicle: saline with Tween-80 88 % of control

CC(C(=O)O)c1ccc2c(c1)Cc1ccccc1-2 (centres undefined)
inactive: [1] 108 % of control | [2] 106 % of control | [3] 105 % of control and 86 % of control

Cc1cc2c(cc1C)NC1C(=O)C(c3ccccc3Cl)OC1=N2 (centres undefined)
inactive: dose: 50.0 mg/kg/injection, schedule: Q01DX005 (ip), vehicle: Klucel + Tween-80 92 % of control | dose: 100.0 mg/kg/injection, schedule: Q01DX005 (ip), vehicle: Klucel + Tween-80 94 % of control | dose: 200.0 mg/kg/injection, schedule: Q01DX005 (ip), vehicle: Klucel + Tween-80 91 % of control

Nc1ccc2ccc(N)cc2c1
inactive: dose: 25.0 mg/kg/injection, schedule: Q01DX005 (ip), vehicle: saline with Tween-80 105 % of control | [6] 98 % of control and 104 % of control | [7] 103 % of control and 113 % of control | [8] 122 % of control and 123 % of control

CCN1CCCC(Nc2cc(C)nc(Nc3nc4cc(Cl)c(Cl)cc4[nH]3)n2)C1 (centres undefined)
inactive: dose: 12.5 mg/kg/injection, schedule: Q01DX009 (ip), vehicle: Klucel (hydroxypropylcellulose) (HPC) 90 % of control

CCOC(=O)c1nc(C(Br)(Br)Br)[nH]c(=O)c1C
inactive: dose: 6.25 mg/kg/injection, schedule: Q01DX009 (ip), vehicle: distilled water + Tween-80 102 % of control | dose: 12.5 mg/kg/injection, schedule: Q01DX009 (ip), vehicle: distilled water + Tween-80 113 % of control | dose: 25.0 mg/kg/injection, schedule: Q01DX009 (ip), vehicle: distilled water + Tween-80 116 % of control | dose: 50.0 mg/kg/injection, schedule: Q01DX009 (ip), vehicle: distilled water + Tween-80 113 % of control | dose: 100.0 mg/kg/injection, schedule: Q01DX009 (ip), vehicle: distilled water + Tween-80 113 % of control
